Experiment [1] concerns Adnp deficiency in mice. On the set-up: method as in PMID 26782054. To be noted: cited from earlier work.
In experiment [2] the test system is VGLUT1. Put plainly: Immunohistochemistry. In kind it is in vivo, mouse. To be noted: male Adnp+/- mice. The protocol: Immunohistochemistry was carried out as previously described. Briefly, paraffin sections were deparaffinized, rehydrated in graded alcohols, and antigen retrieval was performed with citrate buffer pH 6. Endogenous peroxidase was blocked with 3% H2O2 in methanol and was followed by incubation in the appropriate blocking buffer for 30 min. Sections were incubated overnight at 4 °C with the primary antibodies against VGLUT1 (Santa Cruz Biotechnology, sc-13320). The secondary antibody used was Rabbit Anti-Goat IgG (EMD Millipore, AP106B). Immunoreactions were visualized with the aim of Avidin-Peroxidase (Sigma- Aldrich Chemical), and 3,3′-Diaminobenzidine (DAB, brown color, Sigma-Aldrich Chemical) was utilized as chromogen. Sections were then counterstained with hematoxylin (light blue color).
Sections were further examined under optical microscope Zeiss Axioplan-2 with the aid of a CCD camera (Nikon DS-5M) for observations of the slides. In average, 25 optical fields were examined from each group under a magnification of ×40. Measurements were performed with Image J software (1.43 u) in the areas of the hippocampus and the cortex. The results were expressed as area/mm^2 (as previously described[14]), representing the area of DAB positive signal in each photo divided by the total area of the same photo. An additional parameter measured was the Integrated Density, calculating and displaying […]: the product of Area and Mean Gray Value.

Experiment [3] concerns Adnp+/- mice. Nature of the experiment: Odor discrimination test. In kind it is in vivo, mouse. The procedure:
(§1) Experiments were performed as previously described[8],[30],[40]. […] The behavioral assays were then initiated together with a continuous drug application. For detailed description of the object recognition test and the social approach task, please see supplemental materials and methods. In the odor discrimination test, odors were presented on a suspended cotton swab to the test mouse placed into the clean cage with fresh shavings. Each mouse was tested during three consecutive 2-min periods for each odor, with 2-min intervals between presentations. The time that the mouse smelled the swab was recorded (beginning whenever the animal oriented its nostrils toward the cotton swab, within 2 cm or less)[8],[30]. The hanging wire test measuring the strength of the mouse paws by using the latency to fall off an inverted cage lid (placed 50 cm above the surface) onto a soft bedding (maximum time 90 sec), was performed as previously described[5],[40]. Data are expressed as mean ± SEM.

Experiment [4] has as its system Adnp+/- mice. Put plainly: Social approach task (social recognition and social memory). In kind it is in vivo, mouse. The procedure:
(§2) Experiments were performed as previously described[8],[30],[40]. Three–six-month-old male mice were used, and NAP-CB was administered once daily (0.5 µg/5 µl/mouse) for one month. The behavioral assays were then initiated together with a continuous drug application. For detailed description of the object recognition test and the social approach task, please see supplemental materials and methods. In the odor discrimination test, odors were presented on a suspended cotton swab to the test mouse placed into the clean cage with fresh shavings. Each mouse was tested during three consecutive 2-min periods for each odor, with 2-min intervals between presentations. The time that the mouse smelled the swab was recorded (beginning whenever the animal oriented its nostrils toward the cotton swab, within 2 cm or less)[8],[30]. The hanging wire test measuring the strength of the mouse paws by using the latency to fall off an inverted cage lid (placed 50 cm above the surface) onto a soft bedding (maximum time 90 sec), was performed as previously described[5],[40]. Data are expressed as mean ± SEM.
Social approach: A plexiglas box was divided into three adjacent chambers, each 20 cm (length) × 40.5 cm (width) × 22 cm (height), separated by two removable doors. Steel wire pencil cups (10.16 cm (diameter), 10.8 cm (height)), www.kitchen-plus.com, were used as both containment for the target mice and as inanimate objects (weights prevented the mice from overturning the cups). […] The next day, each subject mouse was tested in an experiment with three phases, each 10-min long (measured with a simple timer): I and II, the habituation phases (ensuring no bias), and III, the experimental phase. […] Mouse movement and exploratory behavior were tracked and recorded using the EthoVision XT video tracking system and software (Noldus Inc. Leesburg, VA). The discrimination capacity (social memory) was analyzed using the formula: D2 = (b-a)/(b+a), where ‘a’ designated the time of exploration of the familiar mouse and 'b' designated the time of exploration of the novel mouse.

Experiment [5] concerns Adnp+/- mice. Nature of the experiment: Object recognition test. As to conditions: male Adnp+/+ mice (Supplemental Fig. S2A, B). Format: in vivo, mouse. The procedure: as §2, with “The hanging wire test measuring the strength of the mouse paws by using the latency to fall off an inverted cage lid (placed 50 cm above the surface) onto a soft bedding (maximum time 90 sec), was performed as previously described[5],[40].” left out
Object recognition: The test included two consecutive days of habituation (5 min per day) and the experimental day which consisted of the three phases. […] The time spent sniffing/touching each object was measured. Mouse movement and exploratory behavior were tracked and recorded using the EthoVision XT video tracking system and software (Noldus Inc. Leesburg, VA). […]

The test system of experiment [6] is patients. As to conditions: cited from earlier work. An excerpt: Together, these studies attest to preclinical efficacy, holding a promise for clinical effectiveness. […] Nevertheless, in a study performed in severely affected individuals suffering from progressive supranuclear palsy (PSP), belonging to the family of rapidly progressing frontotemporal neurodegener ...

The test system of experiment [7] is Adnp+/- mice. Put plainly: Hanging wire test. Format: in vivo, mouse. As to conditions: significant vs vehicle. The protocol:
as §1

In experiment [8] the test system is hippocampus of Adnp+/- mice. Nature of the experiment: Diffusion tensor imaging (DTI) MRI of chronically treated brains. In kind it is in vivo, mouse. The text has this: Seven–eight-month-old male mice underwent MRI on a 7.0 T/30 spectrometer (Bruker, Rheinstetten, Germany) using a volume coil for excitation and a rat quadrature coil for acquisition. The MRI protocol used here was the DTI.
DTI was obtained using a diffusion-weighted (DW) spin-echo echo-planar-imaging (EPI) pulse sequence with the following parameters: TR/TE = 4000/25 ms, Δ/δ = 10/4.5 ms, 4 EPI segments and 32 non-collinear gradient directions with a single b value (1000 sec/mm^2) and two images with b value of 0 sec/mm^2 (referred to as b0). Geometrical parameters were: 24 slices of 0.5 mm thickness, matrix size of 128 × 128 and FOV of […]). The imaging protocol was repeated three times for signal averaging and to compensate for acquisition where significant head motion was observed. Image analysis included DTI analysis of the DW-EPI images to produce the mean diffusivity (MD) and fractional anisotropy (FA) indexed maps following a two-way ANOVA with Tukey post-hoc test.

Experiment [9] deals with Slc17a7 gene encoding VGLUT1. Nature of the experiment: Gene expression analysis (quantitative RT-PCR). Format: in vivo, mouse. The protocol: Hippocampal and cerebral cortical RNA of mouse that were 7.5-month-old were extracted using TRI Reagent® (T9424, Sigma-Aldrich, MO, USA). A volume of 1 μg RNA/sample was then subjected to reverse transcription (RT) using qScript cDNA Synthesis Kit (Quanta Biosciences, Gaithersburg, MD, USA). Further Real-time PCR analysis was performed using PerfeCta^TM SYBR® Green FastMix^TM, Low ROX^TM (Cat. No. 95074–012, Quanta Biosciences, Gaithersburg, MD, USA) and the QuantStudio 12 K Flex Real-Time PCR System (Thermo Fisher Scientific, Waltham, MA, USA). RNA expression levels were determined using specific mouse primers: Slc17a7 gene encoding VGLUT1, sense 5′-[…]-3′, anti-sense 5′-[…]-3′. Hypoxanthine-guanine phosphoribosyltransferase (Hprt) was selected as a stable reference gene with appropriate primers for mouse, sense 5′-[…]-3′, anti-sense 5′-[…]-3′. Results are presented as 2^-ΔCT[42].

SKIP: in [1], the impaired axonal transport entry is “ameliorated”.

For the substance NAPVSIPQ, in [2], the “VGLUT1 protein, intensity (Integrated Density), cortex” value is on record as “trend of improvement”. In addition, in experiment [2] (five animals per group, technical replicates, p < 0.001 vs CB), the “VGLUT1 protein, area counting (area/mm^2), hippocampus” value is “full protection”. The “VGLUT1 protein, area counting (area/mm^2), cerebral cortex” value in experiment [2] (five animals per group, technical replicates, p < 0.05 vs CB) was “full protection”. In addition, in experiment [2] (p < 0.001 vs CB), the “VGLUT1 protein, intensity (Integrated Density), hippocampus” value is given as “significant”. The “total odor sniffing time (AUC)” value in experiment [3] (female Adnp+/- mice, NAP vs CB vehicle, p < 0.05) was “significantly reduced”. For the same substance, the “odor discrimination ability (novel vs. familiar odor), differences between experimental groups” value in [3] (females (Supplemental Fig. S2E)) is “no significant differences”; in experiment [3] (males), “no significant differences were observed between experimental groups”. The “total time spent with the different odors (AUC)” value in experiment [3] (male Adnp+/- mice, NAP vs CB vehicle, p < 0.05) is “significantly increased”. In addition, the “social recognition, sniffing time mouse vs cup” value in experiment [4] (NAP-treated Adnp+/- male mice, p < 0.001 vs. cup) was “significant differences between sniffing time of the cup (c) and mouse (M)”. In addition, the “social memory (D2, novel vs familiar mouse)” value in [4] (female Adnp+/- mice, n = 3-4 per group, p < 0.001 vs vehicle (Supplemental Fig. S2D)) is recorded as “improved social memory”. Besides, the “social recognition, preference mouse vs object” value in experiment [4] (females (Supplemental Fig. S2C), n = 3-4 per group) was “significant preference to mice rather than objects”. Moreover, the “object recognition, relative discrimination, short and long retention choice phases, NAP- vs CB-treated” value in [5] was “no significant differences”. The cognitive scores entry in [6] (amnestic mild cognitive impairment patients) is “increase in cognitive scores”. The “functional activities of daily living” value in experiment [6] (schizophrenia patients) is on record as “protection of functional activities of daily living”. The “efficacy in progressive supranuclear palsy (PSP)” value in experiment [6] (severely affected individuals suffering from PSP) was “did not show efficacy”. Besides, the “hanging wire test, latency to fall” value in [7] (female Adnp+/- mice (Supplemental Fig. S2F)) was “ameliorating this behavior”; in experiment [7] (male Adnp+/- mice, maximum time 90 sec), “amelioration”. Further, in experiment [8] (male Adnp+/+ mice (Supplemental Fig. S3A)), the “hippocampal mean diffusivity (MD), NAP- vs CB-treated” value is reported as “no significant differences in MD”. The “hippocampal fractional anisotropy (FA)” value in experiment [8] (male Adnp+/+ mice (Supplemental Fig. S3B)) is recorded as “not affected”. In experiment [8] (male Adnp+/- mice, 7-8 months old, -1.84 mm from Bregma, n = 4-6 per group), the “hippocampal mean diffusivity (MD), effect on increase in Adnp+/-” value is listed as “although insignificant, was slightly reduced”. Besides, in [9] (female Adnp+/- mice, n = 3-4 per group (Supplemental Fig. S4B)), the “cerebral cortex VGLUT1 expression (reduced in Adnp+/-)” value was “no effect”. Moreover, in experiment [9] (females, n = 3-4 per group (Supplemental Fig. S4A)), the “hippocampal VGLUT1 gene expression” value is “not affected”. Moreover, in experiment [9] (male Adnp+/- mice, 2^-ΔCT normalized to Hprt, n = 4 per group), the “VGLUT1 transcript, cerebral cortex” value is “small, albeit significant decrease”. Moreover, the “Slc17a7 (VGLUT1) gene expression, hippocampus (decrease in Adnp+/-)” value in [9] (male Adnp+/- mice, 7.5-month-old, 2^-ΔCT normalized to Hprt, n = 4 per group) is recorded as “completely reversed”.

Source of the values: PMC6341082 (Translational Psychiatry, 2019).
